Molecular target: T1, EED (1-441)-His protein (Homo sapiens, UniProt O75530)
T1 construct: 20 nM EED (1-441)-His protein
Test: EED-H3K27Me3 peptide competition binding assay by AlphaScreen
Conditions: Table 4A, read-out: Alpha screen
Experimental: EED-H3K27Me3 Peptide Competition Binding Assay by AlphaScreen (α-Screen):
The compounds at each concentration (2.5 μl of each) were transferred into a 384-well Perkin Elmer OptiPlate-384 white plates. 5 μl of solutions containing 20 nM EED (1-441)-His protein in the buffer (25 mM HEPES, pH 8, 0.02% Tween-20, 0.5% BSA) were added to the wells and then incubated with compound for 15 min. 2.5 μl of solutions containing 20 nM biotin-H3K27Me3 (19-33) peptide in the buffer (25 mM HEPES, pH 8, 0.02% Tween-20, 0.5% BSA) were added to the wells and then incubated with compound for 30 min. AlphaScreen detection beads mix was prepared immediately before use by mixing nickel chelate acceptor beads and streptavidin donor beads in a 1:1 ratio (Perkin Elmer, Product No. 6760619C/M/R) into the buffer described above. Then 10 μl of the detection beads mix was added to the plate and incubated in the dark at RT for 1 h. The final concentration of donor and acceptor beads was 10 μg/ml for each. Plates were read on CLARIOStar plate reader (BMG Labtech) using the AlphaScreen setting adapted for optimal signal detection with a 615 nm filter, after sample excitation at 680 nm. The emission signal at 615 nm was used to quantify compound inhibition. AlphaScreen signals were normalized based on the reading coming from the positive (maximum signal control) and negative controls (minimum signal control) to give percentage of activities left. The data were then fit to a dose response equation to get the IC50 values.

T1 sequence (O75530 whole entry): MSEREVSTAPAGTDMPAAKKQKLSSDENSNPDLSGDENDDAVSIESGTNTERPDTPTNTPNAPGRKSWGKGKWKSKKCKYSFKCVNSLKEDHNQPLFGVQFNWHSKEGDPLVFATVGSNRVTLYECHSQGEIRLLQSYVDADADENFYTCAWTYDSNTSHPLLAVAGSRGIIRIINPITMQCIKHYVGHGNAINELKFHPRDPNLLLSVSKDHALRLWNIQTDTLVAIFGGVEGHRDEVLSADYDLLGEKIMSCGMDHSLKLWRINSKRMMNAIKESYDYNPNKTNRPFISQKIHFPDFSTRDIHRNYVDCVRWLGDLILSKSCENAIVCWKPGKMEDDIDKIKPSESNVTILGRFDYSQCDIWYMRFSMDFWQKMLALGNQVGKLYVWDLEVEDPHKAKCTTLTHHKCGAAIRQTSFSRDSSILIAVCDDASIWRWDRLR

Structure (SMILES) | IC50 [nM]
O=C1OCc2ccc(C(F)(F)F)cc2-c2cnc(NCc3c(F)ccc4c3CCO4)n3cnc1c23 [Compound 24, 12-(((5-fluoro-2,3-dihydrobenzofuran-4-yl)methyl)amino)-8-(trifluoromethyl)-3H,5H-4-oxa-2,11,12a-triazabenzo[4,5]cycloocta[1,2,3-cd]inden-3-one] | 4.75
O=C1NCc2nc(C(F)(F)F)ccc2-c2cnc(NCc3c(F)ccc4c3CCO4)n3cnc1c23 [Compound 25, 12-(((5-fluoro-2,3-dihydrobenzofuran-4-yl)methyl)amino)-7-(trifluoromethyl)-4,5-dihydro-3H-2,4,6, 11,12a-pentaazabenzo[4,5]cycloocta[1,2,3-cd] inden-3-one] | 3.31
O=C1NCc2ccc(C(F)(F)F)cc2-c2cnc(NCc3c(F)ccc4c3CCO4)n3cnc1c23 [Compound 26, 12-(((5-fluoro-2,3-dihydrobenzofuran-4-yl)methyl)amino)-8-(trifluoromethyl)-4,5-dihydro-3H-2,4,11, 12a-tetraazabenzo[4,5]cycloocta[1,2,3-cd]inden-3-one] | 9.84
O=C1OCc2cc(C(F)(F)F)ccc2-c2cnc(NCc3cccc4c3OCO4)n3cnc1c23 [Compound 27, 12-((benzo[d][1,3]dioxol-4-ylmethyl)amino)-7-(trifluoromethyl)-3H,5H-4-oxa-2,11,12a-triazabenzo [4,5]cycloocta[1,2,3-cd]inden-3-one] | 5.87
COc1cccc(F)c1CNc1ncc2c3c(ncn13)C(=O)OCc1cc(C(F)(F)F)ccc1-2 [Compound 28, 12-((2-fluoro-6-methoxybenzyl)amino)-7-(trifluoro-methyl)-3H,5H-4-oxa-2,11,12a-triazabenzo[4,5] cycloocta[1,2,3-cd]inden-3-one] | 2.58
O=C1OCc2ccc(C(F)(F)F)nc2-c2cnc(NCc3c(F)ccc4c3CCO4)n3cnc1c23 [Compound 29, 12-(((5-fluoro-2,3-dihydrobenzofuran-4-yl)methyl)amino)-8-(trifluoromethyl)-3H,5H-4-oxa-2,9,11, 12a-tetraazabenzo[4,5]cycloocta[1,2,3-cd]inden-3-one] | 20.7
O=C1OCc2ncc(C(F)(F)F)cc2-c2cnc(NCc3c(F)ccc4c3CCO4)n3cnc1c23 [Compound 30, 12-(((5-fluoro-2,3-dihydrobenzofuran-4-yl)methyl)amino)-8-(trifluoromethyl)-3H,5H-4-oxa-2,6,11, 12a-tetraazabenzo[4,5]cycloocta[1,2,3-cd]inden-3-one] | 2.03
O=C1OCc2cnc(C(F)(F)F)cc2-c2cnc(NCc3c(F)ccc4c3CCO4)n3cnc1c23 [Compound 32, 12-(((5-fluoro-2,3-dihydrobenzofuran-4-yl)methyl)amino)-8-(trifluoromethyl)-3H,5H-4-oxa-2,7,11, 12a-tetraazabenzo[4,5]cycloocta[1,2,3-cd]inden-3-one] | 1.84
O=C1c2ncn3c(NCc4c(F)ccc5c4CCO5)ncc(c23)-c2ccc(C(F)(F)F)nc2CN1CC1COCCO1 (centres unmarked) [Compound 35, 4-((1,4-dioxan-2-yl)methyl)-12-(((5-fluoro-2,3-dihydrobenzofuran-4-yl)methyl)amino)-7-(trifluoro-methyl)-4,5-dihydro-3H-2,4,6,11,12a-pentaazabenzo [4,5]cycloocta[1,2,3-cd]inden-3-one] | 1.16
O=C1c2ncn3c(NCc4c(F)ccc5c4CCO5)ncc(c23)-c2cnc(C(F)(F)F)cc2CN1C1CC1 [Compound 36, 4-cyclopropyl-12-(((5-fluoro-2,3-dihydrobenzofuran-4-yl)methyl)amino)-7-(trifluoromethyl)-4,5-dihydro-3H-2,4,8,11,12a-pentaazabenzo[4,5]cycloocta[1,2,3-cd]inden-3-one] | 1.44
CN1CCC(CN2Cc3cc(C(F)(F)F)ncc3-c3cnc(NCc4c(F)ccc5c4CCO5)n4cnc(c34)C2=O)CC1 [Compound 38, 12-(((5-fluoro-2,3-dihydrobenzofuran-4-yl)methyl)amino)-4-((1-methylpiperidin-4-yl)methyl)-7-(trifluoromethyl)-4,5-dihydro-3H-2,4,8,11,12a-pentaazabenzo[4,5]cycloocta[1,2,3-cd]inden-3-one] | 1.25
CN1Cc2ccc(C(F)(F)F)nc2-c2cnc(NCc3c(F)ccc4c3CCO4)n3cnc(c23)C1=O [Compound 39, 12-(((5-fluoro-2,3-dihydrobenzofuran-4-yl)methyl)amino)-4-methyl-8-(trifluoromethyl)-4,5-dihydro-3H-2,4,9,11,12a-pentaazabenzo[4,5]cycloocta [1,2,3-cd]inden-3-one] | 26.1
O=C1c2ncn3c(NCc4c(F)ccc5c4CCO5)ncc(c23)-c2nc(C(F)(F)F)ccc2CN1CC1COCCO1 (centres unmarked) [Compound 40, 4-((1,4-dioxan-2-yl)methyl)-12-(((5-fluoro-2,3-dihydrobenzofuran-4-yl)methyl)amino)-8-(trifluoro-methyl)-4,5-dihydro-3H-2,4,9,11,12a-pentaazabenzo [4,5]cycloocta[1,2,3-cd]inden-3-one] | 10.5
O=C1c2ncn3c(NCc4c(F)ccc5c4CCO5)ncc(c23)-c2ccc(C(F)(F)F)nc2CN1CC1(O)CC1 [Compound 44, 12-(((5-fluoro-2,3-dihydrobenzofuran-4-yl)methyl)amino)-4-((1-hydroxycyclopropyl)methyl)-7-(trifluoromethyl)-4,5-dihydro-3H-2,4,6,11,12a-pentaazabenzo[4,5]cycloocta[1,2,3-cd]inden-3-one] | 1.34
O=C1c2ncn3c(NCc4c(F)ccc5c4CCO5)ncc(c23)-c2cnc(C(F)(F)F)cc2CN1CC1CCOCC1 [Compound 45, 12-(((5-fluoro-2,3-dihydrobenzofuran-4-yl)methyl)amino)-4-((tetrahydro-2H-pyran-4-yl)methyl)-7-(trifluoromethyl)-4,5-dihydro-3H-2,4,8,11,12a-pentaazabenzo[4,5]cycloocta[1,2,3-cd]inden-3-one] | 3.39

Compounds with a lower IC50, results first:

IC50 [nM] | Structure (SMILES)
0.604 | O=C1OCc2cc(OC(F)(F)F)ccc2-c2cnc(NCc3c(F)ccc4c3CCO4)n3cnc1c23 [Compound 31, 12-(((5-fluoro-2,3-dihydrobenzofuran-4-yl)methyl)amino)-7-(trifluoromethoxy)-3H,5H-4-oxa-2,11, 12a-triazabenzo[4,5]cycloocta[1,2,3-cd]inden-3-one]
1.06 | CN1Cc2nc(C(F)(F)F)ccc2-c2cnc(NCc3c(F)ccc4c3CCO4)n3cnc(c23)C1=O [Compound 33, 12-(((5-fluoro-2,3-dihydrobenzofuran-4-yl)methyl)amino)-4-methyl-7-(trifluoromethyl)-4,5-dihydro-3H-2,4,6,11,12a-pentaazabenzo[4,5]cycloocta [1,2,3-cd]inden-3-one]
0.67 | CN1Cc2cc(C(F)(F)F)ncc2-c2cnc(NCc3c(F)ccc4c3CCO4)n3cnc(c23)C1=O [Compound 34, 12-(((5-fluoro-2,3-dihydrobenzofuran-4-yl)methyl)amino)-4-methyl-7-(trifluoromethyl)-4,5-dihydro-3H-2,4,8,11,12a-pentaazabenzo[4,5]cycloocta [1,2,3-cd]inden-3-one]
0.94 | O=C1c2ncn3c(NCc4c(F)ccc5c4CCO5)ncc(c23)-c2cnc(C(F)(F)F)cc2CN1CC1COCCO1 (centres unmarked) [Compound 37, 4-((1,4-dioxan-2-yl)methyl)-12-(((5-fluoro-2,3-dihydrobenzofuran-4-yl)methyl)amino)-7-(trifluoro-methyl)-4,5-dihydro-3H-2,4,8,11,12a-pentaazabenzo [4,5]cycloocta[1,2,3-cd]inden-3-one]
0.6 | O=C1c2ncn3c(NCc4c(F)ccc5c4CCO5)ncc(c23)-c2ccc(C(F)(F)F)nc2CN1C1CC1 [Compound 41, 4-cyclopropyl-12-(((5-fluoro-2,3-dihydrobenzofuran-4-yl)methyl)amino)-7-(trifluoromethyl)-4,5-dihydro-3H-2,4,6,11,12a-pentaazabenzo[4,5] cycloocta[1,2,3-cd]inden-3-one]
0.84 | CN1CCC(CN2Cc3nc(C(F)(F)F)ccc3-c3cnc(NCc4c(F)ccc5c4CCO5)n4cnc(c34)C2=O)CC1 [Compound 42, 12-(((5-fluoro-2,3-dihydrobenzofuran-4-yl)methyl)amino)-4-((1-methylpiperidin-4-yl)methyl)-7-(trifluoromethyl)-4,5-dihydro-3H-2,4,6,11,12a-pentaazabenzo[4,5]cycloocta[1,2,3-cd]inden-3-one]
1.05 | O=C1c2ncn3c(NCc4c(F)ccc5c4CCO5)ncc(c23)-c2cnc(C(F)(F)F)cc2CN1CC1(O)CC1 [Compound 43, 12-(((5-fluoro-2,3-dihydrobenzofuran-4-yl)methyl)amino)-4-((1-hydroxycyclopropyl)methyl)-7-(trifluoromethyl)-4,5-dihydro-3H-2,4,8,11,12a-pentaazabenzo[4,5]cycloocta[1,2,3-cd]inden-3-one]
1.07 | O=C1c2ncn3c(NCc4c(F)ccc5c4CCO5)ncc(c23)-c2ccc(C(F)(F)F)nc2CN1CC1CCOCC1 [Compound 46, 12-(((5-fluoro-2,3-dihydrobenzofuran-4-yl)methyl)amino)-4-((tetrahydro-2H-pyran-4-yl)methyl)-7-(trifluoromethyl)-4,5-dihydro-3H-2,4,6,11, 12a-pentaazabenzo[4,5]cycloocta[1,2,3-cd]inden-3-one]

— US20240316051A1, “A PHARMACEUTICAL COMBINATION AND USE THEREOF” (Ascentage Pharma (Suzhou) Co., Ltd., priority 2021, published 2024)
